In patent publication US20090081157A1, “Immunostimulatory Combinations for Vaccine Adjuvants” (priority 2006, published 2009):

Experiments:
[1] = intravenous infusion, humans with non-small cell lung cancer; cited from earlier work
[2] = system: B16-F10 tumors; experiment: Peritumoral immunotherapy of established B16-F10 melanoma tumors; assay type: in vivo, C57BL/6 mice; conditions: figure legends
Description: BALB/c mice were injected with 1×10^6 A 20 tumor cells s.c. and […] mice were injected with 1×10^6 B16-F10 tumor cells s.c. After a palpable tumor appeared (>4 mm), 50 μl PBS or plasmid DNA (50 μg) with or without TLR agonist molecules was injected into and around the tumors every other day×5. Tumors were measured every other day.
[…] mice were injected with 1×10^6 B16-F10 tumor cells s.c. After a palpable tumor appeared (>4 mm), 50 μl PBS or plasmid DNA (50 μg) with or without TLR agonist, in the presence or absence of cationic polymer (JetPEI™ Qbiogene Irvine, Calif.) molecules, was injected into and around the tumors every other day×5. Tumors were measured every other day.
Methods: B16-F10 melanoma cells were cultured in RPMI 1640 with 10% fetal bovine serum. Cells were detached with trypsin-EDTA and washed in phosphate-buffered saline (PBS). Then, 10E5 cells in 100 ul PBS were injected subcutaneously over the abdomen of female C57BL/6 female mice, 6- to 9-weeks old (Jackson Laboratories). […]
ATPγS, a nonhydrolyzable form of ATP was added to various agonists (pSP-D-CD40L+CpG+poly(I:C)+ATPe) and the combination was injected intratumorally in to mice presenting established B16F1 melanomas. […] Tumor size was measured every other day and plotted as the product of two orthogonal diameters (i.e., “tumor area”). […]

Molecule	maximum tolerated dose [1]	synergy with CD40L against established B16-F10 tumors [2]
Nc1ncnc2c1ncn2[C@@H]1O[C@H](COP(=O)(O)OP(=O)(O)OP(=O)(O)O)[C@@H](O)[C@H]1O [ATP, adenosine 5′-triphosphate]	50 ug/kg per minute	
polyriboinosinic-polyribocytidylic acid [Poly I:C]		synergizes with CD40L
